The values below come from PubChem BioAssay (NCI).

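Test compounds were applied to cells in 96-well plates for 48 hours at 5 doses. GI50 = concentration required for 50% inhibition of growth. Definition used: TGI = concentration required for complete inhibition of growth.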

Some test systems named below: HCT-15 colon; SNB-75 CNS; DU-145 prostate; SW-620 colon; RXF 393 renal; SF-295 CNS; SF-539 CNS; NCI-H460 lung; OVCAR-3 ovarian; K-562 leukemia.
What all share (assay): inhibition of tumour cell growth, NCI panel, 48 h

On to `O=C(Nc1cc(Oc2cc(F)c(NC(=O)C3(C(=O)Nc4ccc(F)cc4)CC3)cc2F)ccn1)C1CC1`, for which the GI50 in the assay on HCT-15 colon is 3 µM; in the assay on SNB-75 CNS, 1.49 µM; in the assay with DU-145 prostate, 3.27 µM; with SW-620 colon it was 3.12 µM; in the assay on RXF 393 renal, 2.49 µM; with SF-295 CNS it was 2.21 µM. Also, the GI50 with SF-539 CNS is 1.83 µM; in the assay on NCI-H460 lung, 3.27 µM; in the assay on OVCAR-3 ovarian it was 3.69 µM; in the assay with K-562 leukemia, 1.9 µM. The TGI with HCT-15 colon was greater than 54.2 µM; with SNB-75 CNS, 3.16 µM; in the assay with DU-145 prostate, greater than 100 µM; in the assay with SW-620 colon, greater than 100 µM; in the assay with RXF 393 renal, 4.91 µM; with SF-295 CNS it was 9.91 µM. For the same molecule, the TGI is 4.14 µM in the assay with SF-539 CNS, greater than 34.7 µM in the assay on NCI-H460 lung, 13.1 µM with OVCAR-3 ovarian and greater than 100 µM with K-562 leukemia.
Regarding `COc1ccc(C(CC(=O)c2ccccc2)C(C(=O)c2ccccc2)C(c2ccc(OC)cc2)C2C(=O)NC(=S)NC2=O)cc1` (stereo not given), the GI50 in the assay with HCT-15 colon is 12.9 µM; in the assay with SNB-75 CNS, 31.2 µM; with DU-145 prostate, 10.5 µM; with SW-620 colon, 14.3 µM; with RXF 393 renal it was 18.2 µM; in the assay on SF-295 CNS, 11.4 µM. For the same molecule, the GI50 with SF-539 CNS is 10.1 µM; in the assay with NCI-H460 lung it was 5.88 µM; in the assay on OVCAR-3 ovarian, 4.96 µM; in the assay with K-562 leukemia it was 24.8 µM. Moreover, the TGI is 37.2 µM in the assay with HCT-15 colon; greater than 100 µM with SNB-75 CNS; 32 µM in the assay with DU-145 prostate; 39.9 µM in the assay with SW-620 colon; greater than 100 µM in the assay with RXF 393 renal; 42.7 µM in the assay with SF-295 CNS. The TGI with SF-539 CNS was 36.1 µM; with NCI-H460 lung, 50.7 µM; in the assay with OVCAR-3 ovarian it was 24.8 µM; in the assay with K-562 leukemia, greater than 100 µM.
Turning to `CC(=O)OC1CC[C@@]2(C)C(CC[C@]3(C)C2CC=C2[C@@H]4C(C)[C@H](C)CCC4(C)CCC23C)[C@@]1(C)C(=O)O` (stereo not given in full), the TGI in the assay with HCT-15 colon came to 43.2 µM; in the assay with SNB-75 CNS, 35.8 µM; with DU-145 prostate it was 33.2 µM; in the assay with SW-620 colon, 55.5 µM; with RXF 393 renal, 49.4 µM; with SF-295 CNS, 35.5 µM. Also, the TGI in the assay with SF-539 CNS is 51.8 µM; in the assay with NCI-H460 lung, 71.6 µM; in the assay on OVCAR-3 ovarian it was 40.4 µM; in the assay with K-562 leukemia, 86.9 µM.
Consider `COc1cccc2c1C(=O)OC2c1cccc2ccccc12` (stereo not given), for which the TGI in the assay with HCT-15 colon was greater than 100 µM; in the assay with SNB-75 CNS, 68.4 µM; in the assay with DU-145 prostate it was greater than 100 µM; with SW-620 colon, greater than 100 µM; with RXF 393 renal, 98.6 µM; with SF-295 CNS, greater than 100 µM. The TGI with SF-539 CNS, in the assay with NCI-H460 lung, in the assay with OVCAR-3 ovarian and in the assay with K-562 leukemia was greater than 100 µM throughout.
Consider `CCOC(=O)/C=C/C(=O)[C@H](CC(C)C)NC(=O)[C@H](Cc1ccccc1)NC(=O)OCc1ccccc1`, for which the GI50 in the assay with HCT-15 colon was 1.83 µM; in the assay with SNB-75 CNS it was 12.6 µM; with DU-145 prostate it was 3.1 µM; in the assay with SW-620 colon, 2.86 µM; in the assay on RXF 393 renal, 2.03 µM; in the assay on SF-295 CNS it was 16.2 µM. In addition, the GI50 in the assay with SF-539 CNS is 2.45 µM; with NCI-H460 lung, 16.2 µM; with OVCAR-3 ovarian it was 3.19 µM; in the assay with K-562 leukemia, 2.09 µM. In addition, the TGI in the assay with HCT-15 colon turned out to be 3.78 µM; in the assay on SNB-75 CNS, 25.4 µM; in the assay with DU-145 prostate, 11.5 µM; in the assay with SW-620 colon it was 8.16 µM; with RXF 393 renal, 3.64 µM; in the assay on SF-295 CNS it was 29.8 µM. In addition, the TGI in the assay on SF-539 CNS was determined as 6.04 µM; with NCI-H460 lung, 38.2 µM; with OVCAR-3 ovarian, 10.4 µM; with K-562 leukemia, 10.5 µM.
For `c1ccc([As]=[As]c2ccccc2)cc1` (stereo not given), the GI50 in the assay with HCT-15 colon was 0.416 µM; with SNB-75 CNS, 0.698 µM; in the assay on DU-145 prostate, 1.66 µM; in the assay with SW-620 colon, 0.586 µM; with RXF 393 renal it was 0.58 µM; in the assay on SF-295 CNS, 2.27 µM. Further, the GI50 in the assay with SF-539 CNS is 0.884 µM; in the assay on NCI-H460 lung it was 2.01 µM; in the assay with OVCAR-3 ovarian, 0.676 µM; in the assay on K-562 leukemia, 0.311 µM. Besides, the TGI amounted to 2.24 µM in the assay on HCT-15 colon; 2.65 µM in the assay with SNB-75 CNS; 3.32 µM in the assay on DU-145 prostate; 2.02 µM in the assay on SW-620 colon; 2.04 µM in the assay with RXF 393 renal; 5.75 µM with SF-295 CNS. In addition, the TGI is 2.36 µM with SF-539 CNS, 4.15 µM in the assay on NCI-H460 lung, 1.85 µM in the assay on OVCAR-3 ovarian and 2.1 µM in the assay with K-562 leukemia.
Consider `CCS(=O)(=O)c1ccc(OC)c(Nc2ncc(-c3ccccc3Cl)o2)c1`, for which the GI50 was 9.01 µM with HCT-15 colon; 9.11 µM in the assay with SNB-75 CNS; 10.1 µM with DU-145 prostate; 8.38 µM in the assay with SW-620 colon; 7.35 µM with RXF 393 renal; 9.43 µM in the assay with SF-295 CNS. For the same molecule, the GI50 in the assay on SF-539 CNS is 10.6 µM; in the assay on NCI-H460 lung, greater than 17.7 µM; in the assay with OVCAR-3 ovarian it was 9.38 µM; with K-562 leukemia, 11 µM. The TGI with HCT-15 colon was greater than 25 µM; with SNB-75 CNS it was 24.6 µM; in the assay on DU-145 prostate, greater than 25 µM; in the assay with SW-620 colon, greater than 25 µM; in the assay on RXF 393 renal, greater than 21.7 µM; with SF-295 CNS it was greater than 25 µM. The TGI in the assay on SF-539 CNS, with NCI-H460 lung, with OVCAR-3 ovarian and in the assay with K-562 leukemia was greater than 25 µM throughout.
In the case of `CC(=O)c1cc(C(=O)c2ccc3c(c2)Sc2ccccc2N3)c2c(C)cccn12`, the GI50 with HCT-15 colon is 0.294 µM; in the assay on SNB-75 CNS it was 0.178 µM; in the assay on DU-145 prostate, 0.38 µM; in the assay with SW-620 colon it was 0.265 µM; with RXF 393 renal, 0.252 µM; in the assay on SF-295 CNS, 0.188 µM. Moreover, the GI50 in the assay on SF-539 CNS was 0.234 µM; in the assay with NCI-H460 lung it was 0.213 µM; in the assay on OVCAR-3 ovarian, 0.261 µM; with K-562 leukemia, 0.112 µM. Also, the TGI was greater than 100 µM with HCT-15 colon; 1.04 µM in the assay on SNB-75 CNS; greater than 34.8 µM in the assay with DU-145 prostate; greater than 100 µM in the assay on SW-620 colon; 2.37 µM in the assay with RXF 393 renal; 15.8 µM in the assay on SF-295 CNS. Further, the TGI in the assay with SF-539 CNS is 1.13 µM; in the assay on NCI-H460 lung, 4.76 µM; in the assay on OVCAR-3 ovarian, 0.838 µM; in the assay on K-562 leukemia it was greater than 100 µM.
